Tests used:
[1] = when used alone; cited from earlier work
[2] = Example 2: two siblings given digoxin daily; type: in vivo, human; conditions: for improvement in pain levels and functionality: both patients
Experimental: Two siblings with severe rheumatoid arthritis characterized by progressive pain, stiffness and swelling of joints in spite of treatment with NSAIDs, narcotics, and immunosuppressants were given 0.125 mg of digoxin daily. No response was noted until the 5th day of treatment at which time both patients reported about a 10% improvement in pain levels and functionality, 2 weeks later the dose of digoxin was doubled to 0.25 mg and the patients both noted a proportional improvement in pain levels and functionality to 20%.

[3] = not given; remark: listed apart in the source

C[C@H]1O[C@@H](O[C@H]2[C@@H](O)C[C@H](O[C@H]3[C@@H](O)C[C@H](O[C@H]4CC[C@@]5(C)[C@H](CC[C@@H]6[C@@H]5C[C@@H](O)[C@]5(C)[C@@H](C7=CC(=O)OC7)CC[C@]65O)C4)O[C@@H]3C)O[C@@H]2C)C[C@H](O)[C@@H]1O [digoxin, 4-[(3S,5R,8R,9S,10S,12R,13S,14S,)-3-[(2S,4S,5R,6R)-5-[(2S,4S,5R,6R)-5-[(2S,4S,5R,6R)-4,5-dihydroxy-6-methyl-oxan-2-yl]oxy-4-hydroxy-6-methyl-oxan-2-yl]oxy-4-hydroxy-6-methyl-oxan-2-yl]oxy-12,14-dihydroxy-10,13-dimethyl-1,2,3,4,5,6,7,8,9,11,12,15,16,17-tetradecahydrocyclopenta[a]phenanthren-17-yl]-5H-furan-2-one]
plasma digoxin concentration at which adverse reactions are rare [1]: < 0.8 µg/L
regression of wound area (0.125 mg of digoxin, within 3 days): about 20%
improvement in pain levels and functionality ([2]; 0.125 mg of digoxin daily, 5th day of treatment): ~10%
side effects ([2]; digoxin 0.125 mg then 0.25 mg): No side effects
improvement in pain levels and functionality ([2]; dose doubled to 0.25 mg 2 weeks later): 20%
joint pain ([3]; for one month, next monthly visit): abated
psoriasis at follow up ([3]; remained on 0.125 mg of digoxin, 2 months later, elbows and ankles, with return of joint pain): mild recrudescence

CN(Cc1cnc2nc(N)nc(N)c2n1)c1ccc(C(=O)N[C@@H](CCC(=O)O)C(=O)O)cc1 [Methotrexate]
effectiveness of prior therapy ([3]; Methotrexate 5-10 mg q week with calcipotriene, phototherapy and NSAIDs, prior 4 months): moderately effective

OC(Cn1cncn1)(Cn1cncn1)c1ccc(F)cc1F [fluconazole]
change in the affected area (1 week of treatment, before digoxin): no change
